Where only a bound is given, the exact number is not on record here.

The target of the assay is T1, PD-1/PD-L1 protein/protein interaction (Homo sapiens, UniProt Q9NZQ7).
T1 construct: Recombinant human PD-L1 protein (19-238) with a His-tag at the C-terminus; purchased AcroBiosystems PD1-H5229 (PD-L1-His); PD1-H5257 (PD-1-Fc)
Description: PD-1/PD-L1 Homogeneous Time-Resolved Fluorescence (HTRF) Binding Assay. Conditions: recombinant human PD-L1 (19-238) His-tag and human PD-1 (25-167) Fc tag; 25° C., PBS pH 7.4. The protocol: Example A. PD-1/PD-L1 Homogeneous Time-Resolved Fluorescence (HTRF) Binding Assay
The assays were conducted in a standard black 384-well polystyrene plate with a final volume of 20 μL. Inhibitors were first serially diluted in DMSO and then added to the plate wells before the addition of other reaction components. The final concentration of DMSO in the assay was 1%. The assays were carried out at 25° C. in the PBS buffer (pH 7.4) with 0.05% Tween-20 and 0.1% BSA. Recombinant human PD-L1 protein (19-238) with a His-tag at the C-terminus was purchased from AcroBiosystems (PD1-H5229). Recombinant human PD-1 protein (25-167) with Fc tag at the C-terminus was also purchased from AcroBiosystems (PD1-H5257). PD-L1 and PD-1 proteins were diluted in the assay buffer and 10 μL was added to the plate well. Plates were centrifuged and proteins were preincubated with inhibitors for 40 minutes. The incubation was followed by the addition of […] of HTRF detection buffer supplemented with Europium cryptate-labeled anti-human IgG (PerkinElmer-AD0212) specific for Fc and anti-His antibody conjugated to SureLight®-Allophycocyanin (APC, PerkinElmer-AD0059H). After centrifugation, the plate was incubated at 25° C. for 60 min. before reading on a PHERAstar FS plate reader (665 nm/620 nm ratio). Final concentrations in the assay were […] PD1, 10 nM PD-L1, 1 nM europium anti-human IgG and 20 nM anti-His-Allophycocyanin. IC50 determination was performed by fitting the curve of percent control activity versus the log of the inhibitor concentration using the GraphPad Prism 5.0 software.
(In general: In TR-FRET formats the signal depends on donor and acceptor labels being close together.)

T1 sequence (Q9NZQ7 19-238): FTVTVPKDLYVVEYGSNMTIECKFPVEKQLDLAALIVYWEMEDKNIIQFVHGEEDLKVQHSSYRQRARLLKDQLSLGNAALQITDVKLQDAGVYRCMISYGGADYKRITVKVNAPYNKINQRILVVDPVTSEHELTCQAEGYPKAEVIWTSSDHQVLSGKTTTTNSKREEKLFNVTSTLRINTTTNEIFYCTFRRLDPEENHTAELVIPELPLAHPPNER

As for `N#Cc1c(NC(=O)c2ccc(CN3CCCC[C@H]3C(=O)O)cn2)cccc1-c1ccc2c(c1)OCCO2` [Example 9, (2S)-1-{[6-({[2-cyano-3-(2,3-dihydro-1,4-benzodioxin-6-yl)phenyl]amino}carbonyl)pyridin-3-yl]methyl}piperidine-2-carboxylic Acid], the IC50 (commonly the midpoint of a concentration-inhibition curve) is 10 to 100 nM. Next, `Cc1nc(C(=O)Nc2cccc(-c3ccccc3)c2C)ccc1CNCCO` [Example 14, 5-{[(2-hydroxyethyl)amino]methyl}-6-methyl-N-(2-methylbiphenyl-3-yl)pyridine-2-carboxamide]: 10 to 100 nM; `Cc1c(NC(=O)c2ccc(CNCCO)nn2)cccc1-c1ccccc1` [Example 12, 6-{[(2-hydroxyethyl)amino]methyl}-N-(2-methylbiphenyl-3-yl)pyridazine-3-carboxamide]: 10 to 100 nM; `Cc1c(NC(=O)c2cc(OCC3CC3)c(CNCCO)cn2)cccc1-c1ccccc1` [Example 34, 4-(cyclopropylmethoxy)-5-((2-hydroxyethylamino)methyl)-N-(2-methylbiphenyl-3-yl)picolinamide]: 10 to 100 nM. The value for `Cc1c(NC(=O)c2ccc(CNCCO)cn2)cc(F)cc1-c1ccc2c(c1)OCCO2` [Example 45, N-[3-(2,3-dihydro-1,4-benzodioxin-6-yl)-5-fluoro-2-methylphenyl]-5-{[(2-hydroxyethyl)amino]methyl}pyridine-2-carboxamide] was no more than 10 nM; that for `Cc1c(NC(=O)c2ccc(CNCCO)cn2)ccnc1-c1ccccc1` [Example 43, 5-{[(2-hydroxyethyl)amino]methyl}-N-(3-methyl-2-phenylpyridin-4-yl)pyridine-2-carboxamide] was 100 to 1000 nM; that for `Cc1c(NC(=O)c2ncc(CNCCO)cc2N(C)C)cccc1-c1ccccc1` [Example 21, 3-(dimethylamino)-5-{[(2-hydroxyethyl)amino]methyl}-N-(2-methylbiphenyl-3-yl)pyridine-2-carboxamide] was 100 to 1000 nM.

In the case of `Cc1c(NC(=O)c2ncc(CN3CCCC[C@H]3C(=O)O)cn2)cccc1-c1ccccc1` [Example 5, (2S)-1-[(2-{[(2-methylbiphenyl-3-yl)amino]carbonyl}pyrimidin-5-yl)methyl]piperidine-2-carboxylic Acid], the IC50 fell in the range of 100 to 1000 nM. On to `Cc1cc(C(=O)Nc2cccc(-c3ccccc3)c2C)ncc1CN1CCCC[C@H]1C(=O)O` [Example 32, (2S)-1-[(4-methyl-6-{[(2-methylbiphenyl-3-yl)amino]carbonyl}pyridin-3-yl)methyl]piperidine-2-carboxylic Acid], for which the IC50 is no more than 10 nM.

Regarding `Cc1c(NC(=O)c2cc(OCc3ccccn3)c(CNCCO)cn2)cccc1-c1ccccc1` [Example 20, 5-{[(2-hydroxyethyl)amino]methyl}-N-(2-methylbiphenyl-3-yl)-4-(pyridin-2-ylmethoxy)pyridine-2-carboxamide], the IC50 lay in the range of 10 to 100 nM. Turning to `Cc1nc(C(=O)Nc2cccc(-c3ccccc3)c2C)ccc1CN1CCCC[C@H]1C(=O)O` [Example 13, (2S)-1-[(2-methyl-6-{[(2-methylbiphenyl-3-yl)amino]carbonyl}pyridin-3-yl)methyl]piperidine-2-carboxylic Acid], the half-maximal inhibitory concentration (IC50) was 100 to 1000 nM.

For the compound `Cc1c(NC(=O)c2ccnc(OCc3cccnc3)n2)cccc1-c1ccccc1` [Example 30, N-(2-methylbiphenyl-3-yl)-2-(pyridin-3-ylmethoxy)pyrimidine-4-carboxamide], the IC50 fell in the range of 100 to 1000 nM. Next, `N#Cc1c(NC(=O)c2ccc(CNCCO)cn2)cccc1-c1ccc2c(c1)OCC2` [Example 47, N-[2-cyano-3-(2,3-dihydro-1-benzofuran-6-yl)phenyl]-5-{[(2-hydroxyethyl)amino]methyl}pyridine-2-carboxamide]: 10 to 100 nM; `Cc1c(NC(=O)c2ncc(CNCCO)cc2Cl)cccc1-c1ccccc1` [Example 16, 3-chloro-5-{[(2-hydroxyethyl)amino]methyl}-N-(2-methylbiphenyl-3-yl)pyridine-2-carboxamide]: 10 to 100 nM.

(Values after patent US12516044B2, “Heterocyclic compounds as immunomodulators” (Incyte Corporation, priority 2015, dated 2026).)
